Values belong to the molecule of their own block, whether it stands above or below them. Where a SMILES comes first, the peptide text is derived from it. Bridges are numbered along the chain shown (N, C = ends). Where no end group is shown, it is not given here. The star is where a group is joined. Paclitaxel(2'-O-succinyl) = CC(=O)O[C@H]1C(=O)[C@@]2(C)[C@H]([C@H](OC(=O)c3ccccc3)[C@]3(O)C[C@H](OC(=O)[C@H](OC(=O)CCC(=O)*)[C@@H](NC(=O)c4ccccc4)c4ccccc4)C(C)=C1C3(C)C)[C@]1(OC(C)=O)CO[C@@H]1C[C@@H]2O
What was measured:
U87MG brain glioma = test: Survival time of brain glioma model mice; assay type: in vivo, nude mice; conditions: tail vein, equal dose
Method: On the first day, 10^6 U87MG cells were inoculated at the right caudate nucleus of nude mice of 6-8 weeks old. Three days later, a solvent or equal dose of paclitaxel or PBL001 was administered via the tail vein, and the survival time of each group of mice was recorded, as shown in FIG. 13.

U87 brain tumors = conditions: mouse, in vivo
Method: Cyanine5.5 NHS ester labeling reagent of the Lumiprobe brand was used to fluorescently label each short peptide, and each short peptide was labeled with one fluorescent molecule. […] The fluorescence intensity per unit area was calculated for the brain tumor site and other brain sites respectively, and the enrichment factor of the corresponding polypeptide at the tumor site can be obtained by dividing the fluorescence intensity per unit area at the brain tumor site by the fluorescence intensity per unit area at other brain sites.

u87 brain glioma = test: Enrichment of fluorescent short peptides in brain and tumor of u87 brain glioma model mice; assay type: in vivo, nude mice
Method: u87 brain glioma cells were cultivated. When the cells grew to a sufficient amount, the cells were taken, 8-weeks old nude mice were selected, the brains were located, and 5× 10^5 cells were injected at the location for brain tumorigenesis. U87 tumorigenesis cell line is a cell line with luciferase gene transferred, and the mouse imager can be used to observe the tumorigenesis effect in real time.
After tumorigenesis of the tumor model mice became stable, 100 μl of solution of short peptides labeled with fluorescent molecules was injected into the tail veins. A short peptide Angiopep 2, which was from the Angiochem company and was reported in an article to be able to cross the blood-brain barrier, was selected as a reference control. It is currently reported that this short peptide has excellent applications in crossing the blood-brain barrier and targeting brain tumors. The negative control was fluorescent molecule cy5.5 of the same amount of fluorescence equivalent. After the tail vein injection, the small animal in vivo imaging system IVIS was used to check the brain fluorescence. 100 μl of 5 mg/ml luciferase reaction substrate was injected into the intraperitoneal cavity. After 5 minutes, the small animal imaging system was used to check the brain tumors.
The brains of the mice were taken and the fluorescence of the brains was compared.

Molecule: CC[C@H](C)[C@H](NC(=O)CNC(=O)[C@H](CCCNC(=N)N)NC(=O)[C@H](CC(C)C)NC(=O)[C@H](Cc1ccccc1)NC(=O)[C@H](CC(N)=O)NC(=O)[C@H](CC(N)=O)NC(=O)[C@H](CCCNC(=N)N)NC(=O)[C@H](CCCCNC(=O)CCC(=O)O[C@@H](C(=O)O[C@H]1C[C@@]2(O)[C@@H](OC(=O)c3ccccc3)[C@@H]3[C@]4(OC(C)=O)CO[C@@H]4C[C@H](O)[C@@]3(C)C(=O)[C@H](OC(C)=O)C(=C1C)C2(C)C)[C@@H](NC(=O)c1ccccc1)c1ccccc1)NC(=O)[C@@H]1CCCN1C(=O)[C@H](CCCNC(=N)N)NC(=O)CNC(=O)CNC(=O)[C@H](Cc1ccc(O)cc1)NC(=O)[C@H](Cc1ccccc1)NC(=O)[C@@H](NC(=O)CCC(=O)O[C@@H](C(=O)O[C@H]1C[C@@]2(O)[C@@H](OC(=O)c3ccccc3)[C@@H]3[C@]4(OC(C)=O)CO[C@@H]4C[C@H](O)[C@@]3(C)C(=O)[C@H](OC(C)=O)C(=C1C)C2(C)C)[C@@H](NC(=O)c1ccccc1)c1ccccc1)[C@@H](C)O)C(=O)N[C@@H](CCCNC(=N)N)C(=O)N[C@@H](CO)C(=O)N[C@@H](CCCNC(=N)N)C(=O)NCC(=O)N[C@@H](CC(=O)O)C(=O)O [PBL001] ({Paclitaxel(2'-O-succinyl)}-TFYGGRPK(Paclitaxel(2'-O-succinyl))RNNFLRGIRSRGD-OH)
toxic and side effects compared with paclitaxel (U87MG brain glioma): lower toxic and side effects

Molecule: CC[C@H](C)[C@H](NC(=O)CNC(=O)[C@H](CCCNC(=N)N)NC(=O)[C@H](CC(C)C)NC(=O)[C@H](Cc1ccccc1)NC(=O)[C@H](CC(N)=O)NC(=O)[C@H](CC(N)=O)NC(=O)[C@H](CCCNC(=N)N)NC(=O)[C@H](CCCCN)NC(=O)[C@@H]1CCCN1C(=O)[C@H](CCCNC(=N)N)NC(=O)CNC(=O)CNC(=O)[C@H](Cc1ccc(O)cc1)NC(=O)[C@H](Cc1ccccc1)NC(=O)[C@@H](N)[C@@H](C)O)C(=O)N[C@@H](CCCNC(=N)N)C(=O)N[C@H]1CSSC[C@@H](C(=O)O)NC(=O)[C@H](CC(=O)O)NC(=O)[C@@H]2CCCN2C(=O)CNC(=O)[C@H](CCCCN)NC(=O)[C@H](CC(=O)O)NC(=O)CNC(=O)[C@H](CCCNC(=N)N)NC1=O [SEQ ID NO:8] (H-TFYGGRPKRNNFLRGIRCRGDKGPDC-OH; disulfide 18-26; N-terminus and C-terminus assumed)
tumor enrichment (enrichment factor tumor site / other brain sites) compared to SEQ ID NO:2 peptide (U87 brain tumors): not as significant as the other three synthesized polypeptides

brain fluorescence intensity relative to fluorescently labeled reference peptide Angiopep2 (u87 brain glioma; brain glioma model mice (FIG. 6)): 1.2 times | fluorescence accumulation in the brain tumor site (u87 brain glioma; brain glioma model mice (FIG. 7)): obvious fluorescence accumulation
Molecule: TFYGGRPKRNNFLRGIRSRGD [Pb001]
brain enrichment amount compared with fluorescently labeled reference peptide Angiopep2 (u87 brain glioma; brain glioma model mice, tail vein injection, after perfusion (FIG. 5)): better than that of the fluorescently labeled reference peptide Angiopep2

Reference: patent US12343400B2, “Brain tumor-targeting peptide and application thereof” (priority 2018, dated 2025)
